These results are taken from PubChem BioAssay (NCI).

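Grown in 96-well plates, cells were treated for 48 hours with each compound at five concentrations. Insufficient inhibition: endpoint recorded as highest concentration tested. At the GI50, growth is halved. At the TGI there is no net growth.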 Some results are limits rather than exact numbers.

Some test systems named below: HCT-15 colon; HCC-2998 colon; SN12C renal; COLO 205 colon; SW-620 colon; OVCAR-5 ovarian; EKVX NSCLC; HL-60(TB) leukemia; NCI-H460 lung; UO-31 renal.
Assay in all cases: growth of human tumour cells (NCI), 48 h

On to `COc1ccc(-c2c(C#N)cnc(N)c2-c2nc3cc(C)c(C)cc3[nH]2)cc1`, for which the GI50 in the assay on HCT-15 colon was 5.81 µM; in the assay on HCC-2998 colon it was 11 µM; with SN12C renal, 25.4 µM; in the assay on COLO 205 colon, 7.78 µM; with SW-620 colon it was 6.76 µM; with OVCAR-5 ovarian it was 52.4 µM. The results for the GI50 in the assay with EKVX NSCLC, in the assay with HL-60(TB) leukemia and in the assay with NCI-H460 lung were 15.8 µM, 83.6 µM and 18.1 µM, respectively. Besides, the TGI in the assay with HCT-15 colon is greater than 100 µM; with HCC-2998 colon, greater than 100 µM; in the assay with SN12C renal it was greater than 100 µM; in the assay on COLO 205 colon, 63.7 µM; in the assay on SW-620 colon, greater than 100 µM; with OVCAR-5 ovarian, greater than 100 µM. Besides, the TGI in the assay with EKVX NSCLC, in the assay with HL-60(TB) leukemia and with NCI-H460 lung was greater than 100 µM each time.
On to `COc1ccc2oc3c(ccc[n+]3C)c(=O)c2c1`, for which the TGI in the assay with HCT-15 colon, in the assay on HCC-2998 colon, with SN12C renal, in the assay on COLO 205 colon, in the assay with SW-620 colon and with OVCAR-5 ovarian was greater than 100 µM each time. The TGI in the assay with UO-31 renal, with EKVX NSCLC, in the assay on HL-60(TB) leukemia and with NCI-H460 lung was greater than 100 µM each time.
In the case of `CC(CNc1nc(Nc2ccc(Cl)c(Cl)c2)nc(C(Cl)(Cl)Cl)n1)N(C)C` (stereo not given), the GI50 is 1.68 µM in the assay on HCT-15 colon; 1.58 µM in the assay with HCC-2998 colon; 1.83 µM with COLO 205 colon; 1.6 µM with SW-620 colon; 1.61 µM in the assay on OVCAR-5 ovarian; 1.99 µM with EKVX NSCLC. For the same compound, the GI50 with HL-60(TB) leukemia is 1.69 µM; with NCI-H460 lung it was 1.66 µM. The TGI in the assay on HCT-15 colon amounted to 3.15 µM; in the assay with HCC-2998 colon it was 3.04 µM; with COLO 205 colon it was 3.39 µM; in the assay with SW-620 colon it was 2.95 µM; in the assay with OVCAR-5 ovarian, 3.2 µM; in the assay on EKVX NSCLC, 4.62 µM. The figures for the TGI in the assay on HL-60(TB) leukemia and with NCI-H460 lung were 3.54 µM and 3.11 µM, respectively.
With `COc1cc2c(cc1O)N=C[C@@H]1CCC(O)N1C2=O` (mixture of isomers), the TGI in the assay with HCT-15 colon worked out at 6.44 µM; in the assay on HCC-2998 colon, 2.81 µM; with SN12C renal it was 19.1 µM; in the assay on COLO 205 colon, 1.93 µM; in the assay with SW-620 colon, 6.96 µM; with OVCAR-5 ovarian it was 18.8 µM. For the same compound, the TGI is 2.79 µM with UO-31 renal, 5.99 µM in the assay with EKVX NSCLC, 11.1 µM with HL-60(TB) leukemia and 11.4 µM in the assay with NCI-H460 lung.
On to `CC(=O)Nc1nc(C)c(-c2cc3c(c(S(C)(=O)=O)c2)C(=O)N([C@@H](C)C2CC2)C3)s1`, for which the GI50 in the assay on HCT-15 colon was 28.2 µM; with HCC-2998 colon, 46.7 µM; in the assay with SN12C renal, 28.5 µM; in the assay with COLO 205 colon, 34.9 µM; in the assay on SW-620 colon it was 54.5 µM; in the assay on OVCAR-5 ovarian, 29.9 µM. In addition, the GI50 was 24.8 µM with UO-31 renal, 18.3 µM with EKVX NSCLC, 17.5 µM in the assay on HL-60(TB) leukemia and 37.1 µM with NCI-H460 lung. For the same compound, the TGI in the assay with HCT-15 colon, with HCC-2998 colon, in the assay on SN12C renal, in the assay with COLO 205 colon, in the assay with SW-620 colon and in the assay on OVCAR-5 ovarian was greater than 100 µM throughout. Further, the TGI in the assay with UO-31 renal was greater than 100 µM; in the assay on EKVX NSCLC, 79.9 µM; in the assay with HL-60(TB) leukemia it was greater than 100 µM; with NCI-H460 lung, greater than 100 µM.
Turning to `CC(=O)O[C@@H]1CN(S(=O)(=O)c2ccc(C)cc2)C[C@@H]1C1CCCCC1`, the TGI in the assay on HCT-15 colon is greater than 100 µM; in the assay with HCC-2998 colon, greater than 100 µM; with COLO 205 colon, 46.5 µM; with SW-620 colon it was 41.3 µM; in the assay with OVCAR-5 ovarian it was greater than 100 µM; with UO-31 renal it was greater than 100 µM. Also, the TGI is 58.6 µM with EKVX NSCLC and greater than 100 µM with NCI-H460 lung.
As to `CCc1ncc(C(C)(O)c2ccccc2)n1Cc1ccccc1` (stereo not given), the TGI in the assay on HCT-15 colon was greater than 100 µM; in the assay on SN12C renal, 60.6 µM; in the assay with COLO 205 colon it was greater than 100 µM; with SW-620 colon it was greater than 100 µM; in the assay on OVCAR-5 ovarian it was greater than 100 µM; in the assay on UO-31 renal it was greater than 100 µM. In addition, the TGI in the assay on EKVX NSCLC and in the assay on NCI-H460 lung was greater than 100 µM throughout.
Regarding `CC1CC(c2ccc([N+](=O)[O-])cc2)=Nc2ccccc2S1=O` (stereo not given), the TGI in the assay with HCT-15 colon was 28.1 µM; with HCC-2998 colon, 36.8 µM; with SN12C renal it was greater than 100 µM; in the assay with COLO 205 colon, 33.5 µM; with SW-620 colon it was 29.3 µM; with OVCAR-5 ovarian, 70 µM. The TGI in the assay on UO-31 renal was determined as 26.3 µM; with EKVX NSCLC, 60.9 µM; in the assay on HL-60(TB) leukemia, 50.5 µM; in the assay on NCI-H460 lung, 34.3 µM.
